Measurements as given in patent US4659734A, “Olinecarboxylic acid derivatives” (Nippon Shinyaku Co., Ltd., priority 1983, dated 1987).
≈ marks a conversion by molar mass, not a printed value.

How the values were obtained:
[1] = system: Pseudomonas aeruginosa E-2; assay: Ascending urinary tract infection; assay type: in vivo, ICR female mice
Protocol: ICR Female mice (body weight 20±1 grams) of SPE strain were used in the experiments. The mice were not given any water for seventeen hours, then compulsorily urinated, anesthesized by the administration of 60 mg/kg of pentobarbital into the abdominal cavity, then 1.5×10^5 of Pseudomonas aeruginosa E-2 strain were impregnated into the bladder via the urinary tract, and the external urinary meatus was stopped for four hours by a pin clip, whereupon the mice were infected in the ascending urinary tract.
The compound of Example 22b was given once orally, 4 hours after infection, then twice a day, and the administration was continued for three days. On the fourth day, the kidney was isolated, homogenized in a physiological saline solution, and the number of bacteria was calculated on suitable medium such as, for example, Drigalski medium. If the number of bacteria per one gram of kidney was less than […], then the compound was judged as "effective".

[2] = system: Escherichia coli KC-14; assay: Mouse intraperitoneal infection, survival after one week; assay type: in vivo, ddY strain mice; details: KC14, po; Escherichia coli KC-14, 5 × 10^4 per mouse; one dose per os 2 h after infection
Protocol: (§1) ddY--Strain mice (male; body weight 20±1 grams) of SPF were innoculated with the bacteria set forth in Table 2 by administration of a supension of the bacterial in 4% mucin solution into the abdominal cavity. A compound of the invention was given one time per os two hours after the infection, and, from the survival rate after one week. 50% effective doses (ED50) were calculated by the Behrens-Karber method.

[3] = system: Proteus mirabilis 181; assay: as above; assay type: in vivo, ddY strain mice; details: po; Proteus mirabilis 181, 2 × 10^7 per mouse; one dose per os 2 h after infection
Protocol: as §1

[4] = system: Klebsiella pneumoniae K-1966; assay: as above; assay type: in vivo, ddY strain mice; details: K1966, po; Klebsiella pneumoniae K-1966, 3 × 10^3 per mouse; one dose per os 2 h after infection
Protocol: as §1

[5] = system: Acimetobacter calcoaceticus; assay: as above; assay type: in vivo, ddY strain mice; details: po, 1 × 10^7 per mouse, one dose per os 2 h after infection
Protocol: as §1

[6] = system: Staphylococcus aureus Smith; assay: as above; assay type: in vivo, ddY strain mice; details: po, 3 × 10^6 per mouse, one dose per os 2 h after infection
Protocol: as §1

[7] = system: Pseudomonas aeruginosa E-2; assay: as above; assay type: in vivo, ddY strain mice; details: E2, po; Pseudomonas aeruginosa E-2, 2 × 10^5 per mouse; one dose per os 2 h after infection; Behrens-Karber
Protocol: as §1

[8] = system: Serracia marcescens T-55; assay: as above; assay type: in vivo, ddY strain mice; details: po; Serracia marcescens T-55, 5 × 10^6 per mouse; one dose per os 2 h after infection
Protocol: as §1

[9] = Excretion into urine and recovery, disc method; assay type: in vivo, ddY strain mice; details: 60 mg/kg per os, average ± standard error
Protocol: In the measurement of excretion into urine, ddY strain mice (male; body weights 30±2 grams) were used. Sixty mg/kg of the compound of Example 22b was administered per os and the mice were fed in metabolic cages and their urine was collected.
Therefore, in the quantitative determination, the calibration curve of the compound of Example 21, calculated by the disc method using Escherichia coli NIHJ strain and using the compound dissolved in phosphoric acid buffer (pH 8.0; 1/15M) was used. Table 5 reports the excretion into urine with respect to time, total recovery amount and recovery rate of the compound of Example 22b.

[10] = Blood serum concentration, disc method; assay type: in vivo, ddY strain mice; details: mouse, serum, po, 60 mg/kg per os, average ± standard error
Protocol: In this experiment, ddY strain mice (male; body weight 30±2 grams) were used. Sixty mg/kg of the compound of Example 22b were given per os. The blood concentration was calculated from calibration curves obtained by the disc method using Escherichia coli NIHJ strain as tested bacteria and diluting the test compound of mice serum.

[11] = Acute toxicity; details: mouse, in vivo; oral, groups of ten ddY male mice; read-out: 50% Lethal Doses (LD50)
Protocol: Groups of ten ddY strain male mice (body weights: 20±1 grams) of the test compound were orally administered to determine the LD50. There was […] in which many mice died when the dose was 2000 mg/kg or less.

[12] = system: Streptococcus pyogenes S-23; assay: Minimum growth inhibiting concentration, Japan Chemotherapeutic Society method; assay type: cell-based; details: S23; Streptococcus pyogenes S-23, Gram +; 5% horse blood added agar medium; read-out: Minimum Growth Inhibiting Concn
Protocol: (§2) The Antibacterial activity of the compounds of Examples 14, 13, 22b, 21 and 15 was determined in accordance with the method of Japan Chemotherapeutic Society (cf. Nippon Kagaku Ryoho Gakkai Shi, volume 29, number 1, pages 76 to 79, 1981) and the results are reported in Table 1, which follows. | *5% Horse blood added agar medium for sensitivity measurement being used.

[13] = system: Streptococcus pneumoniae Type I; assay: as above; assay type: cell-based; details: Gram +, 5% horse blood added agar medium, read-out: Minimum Growth Inhibiting Concn
Protocol: as §2

[14] = system: Bacillus subtilis ATCC 6633; assay: as above; assay type: cell-based; details: ATCC6633; Bacillus subtilis ATCC 6633, Gram +; 5% horse blood added agar medium; read-out: Minimum Growth Inhibiting Concn
Protocol: as §2

[15] = system: Micrococcus luteus ATCC 9341; assay: as above; assay type: cell-based; details: ATCC9341; Micrococcus luteus ATCC 9341, Gram +; read-out: Minimum Growth Inhibiting Concn
Protocol: (§3) The Antibacterial activity of the compounds of Examples 14, 13, 22b, 21 and 15 was determined in accordance with the method of Japan Chemotherapeutic Society (cf. Nippon Kagaku Ryoho Gakkai Shi, volume 29, number 1, pages 76 to 79, 1981) and the results are reported in Table 1, which follows.

[16] = system: Pseudomonas maltophilia ATCC 13637; assay: as above; assay type: cell-based; details: Stenotrophomonas maltophilia, ATCC13637; Pseudomonas maltophilia ATCC 13637, Gram -; read-out: Minimum Growth Inhibiting Concn
Protocol: as §3

[17] = system: Pseudomonas cepacia ATCC 25416; assay: as above; assay type: cell-based; details: Burkholderia cepacia, ATCC25416; Pseudomonas cepacia ATCC 25416, Gram -; read-out: Minimum Growth Inhibiting Concn
Protocol: as §3

[18] = system: Escherichia coli KC-14; assay: as above; assay type: cell-based; details: KC14; Escherichia coli KC-14, Gram -; read-out: Minimum Growth Inhibiting Concn
Protocol: as §3

[19] = system: Proteus mirabilis 181; assay: as above; assay type: cell-based; details: Proteus mirabilis 181, Gram -; read-out: Minimum Growth Inhibiting Concn
Protocol: as §3

[20] = system: Klebsiella pneumoniae K-1966; assay: as above; assay type: cell-based; details: K1966; Klebsiella pneumoniae K-1966, Gram -; read-out: Minimum Growth Inhibiting Concn
Protocol: as §3

[21] = system: Pseudomonas aeruginosa No. 12; assay: as above; assay type: cell-based; details: Pseudomonas aeruginosa No. 12, Gram -; read-out: Minimum Growth Inhibiting Concn
Protocol: as §3

[22] = system: Listeria monocytogenes RIMD 1205020; assay: as above; assay type: cell-based; details: RIMD1205020; Listeria monocytogenes RIMD 1205020, Gram +; read-out: Minimum Growth Inhibiting Concn
Protocol: as §3

[23] = system: Proteus vulgaris DX-19; assay: as above; assay type: cell-based; details: DX19; Proteus vulgaris DX-19, Gram -; read-out: Minimum Growth Inhibiting Concn
Protocol: as §3

[24] = system: Acinetobacter calcoacelicus 54; assay: as above; assay type: cell-based; details: Acinetobacter calcoacelicus 54, Gram -; read-out: Minimum Growth Inhibiting Concn
Protocol: as §3

[25] = system: Staphylococcus aureus Smith; assay: as above; assay type: cell-based; details: Gram +, read-out: Minimum Growth Inhibiting Concn
Protocol: as §3

[26] = system: Serracia marcescens IFO 3736; assay: as above; assay type: cell-based; details: Serracia marcescens IFO 3736, Gram -; read-out: Minimum Growth Inhibiting Concn
Protocol: as §3

[27] = system: Alcaligenes faecalis ATCC 8750; assay: as above; assay type: cell-based; details: ATCC8750; Alcaligenes faecalis ATCC 8750, Gram -; read-out: Minimum Growth Inhibiting Concn
Protocol: as §3

[28] = system: Escherichia coli NIHJ JC-2; assay: as above; assay type: cell-based; details: NIHJJC2; Escherichia coli NIHJ JC-2, Gram -; read-out: Minimum Growth Inhibiting Concn
Protocol: as §3

[29] = system: Pseudomonas aeruginosa E-2; assay: as above; assay type: cell-based; details: E2; Pseudomonas aeruginosa E-2, Gram -; read-out: Minimum Growth Inhibiting Concn
Protocol: as §3

[30] = system: Staphylococcus aureus 209-PJC; assay: as above; assay type: cell-based; details: Gram +, read-out: Minimum Growth Inhibiting Concn
Protocol: as §3

In the case of `CCn1cc(C(=O)O)c(=O)c2cc(F)c(N3CCNCC3)cc21` [Comparison Compd., 1-ethyl-6-fluoro-7-(1-piperazinyl)-4-oxo-1,4-dihydroquinoline-3-carboxylicacid, reference compound], the “Number Of Mice Where Compound Was Effective/Total Mice Tested” value ([1]; 3.13 mg/kg oral) is reported as 0/7, the “Number Of Mice Where Compound Was Effective/Total Mice Tested” value ([1]; 6.25 mg/kg oral) is reported as 0/7 and the “Number Of Mice Where Compound Was Effective/Total Mice Tested” value ([1]; 12.5 mg/kg oral) is reported as 0/7. The “Number Of Mice Where Compound Was Effective/Total Mice Tested” value ([1]; 25 mg/kg oral) was 1/7, the “Number Of Mice Where Compound Was Effective/Total Mice Tested” value ([1]; 50 mg/kg oral) was 4/7 and the “Number Of Mice Where Compound Was Effective/Total Mice Tested” value ([1]; 100 mg/kg oral, 4 h after infection then twice a day, three days) was 6/7. The ED50 ([1]; Pseudomonas aeruginosa, E2, in Mus musculus, 72 h, ascending urinary tract infection, oral, three days, read-out: 50% Effective Dose) was 58 mg/kg, the ED50 [2] was 3.3 mg/kg and the ED50 [3] was 29 mg/kg. It also gave an ED50 [4] greater than 13 mg/kg, an ED50 [5] greater than 35 mg/kg and an ED50 [6] greater than 25 mg/kg. The ED50 [7] was 260 mg/kg, the ED50 [8] was 6 mg/kg and the “Amount excreted into Urine” value ([9]; 0-3 hrs) was 60.25 ± 17.9 µg. For the same compound, the “Amount excreted into Urine” value ([9]; 3-6 hrs) was 29.25 ± 9.0 µg, the “Amount excreted into Urine” value ([9]; 6-24 hrs) was 19.78 ± 6.6 µg and the concentration at 0.25 h ([10]; 0.25 hours) was 640 ± 90 ng/mL. The concentration at 0.5 h ([10]; 0.5 hours) was 900 ± 290 ng/mL, the concentration at 1 h ([10]; 1 hour) was 580 ± 100 ng/mL and the concentration at 2 h ([10]; 2 hours) was 330 ± 150 ng/mL. It also gave a concentration at 4 h ([10]; 4 hours) of 90 ± 10 ng/mL.

Compound `O=C(O)c1c(=O)c2cc(F)c(N3CCNCC3)cc2n2ccsc12` [Example 13, 7-fluoro-5-oxo-8(1-piperazinyl)-5H-thiazolo(3,2-a)quinoline-4-carboxylic acid] has an LD50 [11] greater than 2000 mg/kg, an MIC [12] of 0.1 µg/mL (≈ 0.288 µM) and an MIC [13] of 0.1 µg/mL (≈ 0.288 µM). The MIC [14] was 0.0063 µg/mL (≈ 0.0181 µM), the MIC [15] was 0.78 µg/mL (≈ 2.25 µM) and the MIC [16] was 0.5 µg/mL (≈ 1.44 µM). For the same compound, the MIC [17] was 0.78 µg/mL (≈ 2.25 µM), the MIC [18] was 0.0063 µg/mL (≈ 0.0181 µM) and the MIC [19] was 0.0063 µg/mL (≈ 0.0181 µM). For the same compound, the MIC [20] was 0.025 µg/mL (≈ 0.072 µM), the MIC [21] was 0.2 µg/mL (≈ 0.576 µM) and the MIC [22] was 0.2 µg/mL (≈ 0.576 µM). For the same compound, the MIC [23] was 0.013 µg/mL (≈ 0.0374 µM), the MIC [24] was 0.78 µg/mL (≈ 2.25 µM) and the MIC [25] was 0.05 µg/mL (≈ 0.144 µM). It also gave an MIC [26] of 0.2 µg/mL (≈ 0.576 µM), an MIC [27] of 0.78 µg/mL (≈ 2.25 µM) and an MIC [28] of 0.05 µg/mL (≈ 0.144 µM). The MIC [29] was 0.2 µg/mL (≈ 0.576 µM) and the MIC [30] was 0.025 µg/mL (≈ 0.072 µM).
